In patent US20230159453A1 (COCRYSTAL PHARMA, INC., priority 2020, published 2023) one finds IC50 data, which are given here for 18 compounds.

Each structure is given as a SMILES string.

In this assay the target is SARS2 protease (Severe acute respiratory syndrome coronavirus 2, UniProt P0DTD1). Put plainly: SARS-CoV-2 protease inhibition assay (SARS2 FRET protease assay). The following applies: SARS-CoV-2 protease 25 nM, FRET, peptide substrate 1.3 μM, 30 minutes at 30° C., compounds 20 μM to 1.0 nM; read-out: IC50. The class given is biochemical.
For `CCOP(=O)(OCC)C(O)C(CC1CC2(CCN(C(C)=O)CC2)NC1=O)NC(=O)C(CC(C)C)NC(=O)OCc1cccc(Cl)c1` (stereo in doubt) [Compound C69, 3-Chlorobenzyl ((2R)-1-((3-(8-acetyl-2-oxo-1,8-diazaspiro[4.5]decan-3-yl)-1-(diethoxyphosphoryl)-1-hydroxypropan-2-yl)amino)-4-methyl-1-oxopentan-2-yl)carbamate], the IC50 was 26.8 µM.

On to `CCOP(=O)(OCC)C(O)C(CC1CC2(CCCCC2)NC1=O)NC(=O)C(CC(C)C)NC(=O)OCc1cccc(Cl)c1` (stereo in doubt) [Compound C85, 3-Chlorobenzyl ((2R)-1-((1-(diethoxyphosphoryl)-1-hydroxy-3-(2-oxo-1-azaspiro[4.5]decan-3-yl)propan-2-yl)amino)-4-methyl-1-oxopentan-2-yl)carbamate], for which the IC50 was found to be 17.8 µM.

On to `CC(C)C[C@H](NC(=O)OC1CCCC1Cc1ccccc1)C(=O)NC(C[C@@H]1CCNC1=O)C(=O)C(=O)NC1CC1` (stereo in doubt) [Compound C89, 2-Benzylcyclopentyl ((S)-1-(((R)-4-(cyclopropylamino)-3,4-dioxo-1-((S)-2-oxopyrrolidin-3-yl)butan-2-yl)amino)-4-methyl-1-oxopentan-2-yl)carbamate], for which the IC50 was 0.3 µM.

Regarding `CCCC1CCC(OC(=O)NC(CC(C)C)C(=O)NC(CC2CC3(CCN(C(C)=O)CC3)NC2=O)C(O)P(=O)(OCC)OCC)CC1` (stereo in doubt) [Compound C91, 4-Propylcyclohexyl ((2R)-1-((3-(8-acetyl-2-oxo-1,8-diazaspiro[4.5]decan-3-yl)-1-(diethoxyphosphoryl)-1-hydroxypropan-2-yl)amino)-4-methyl-1-oxopentan-2-yl)carbamate], the IC50 was more than 20 µM.

With `CC(=O)N1CCC2(CC1)CC(CC(NC(=O)C(Cc1ccccc1)NC(=O)c1cnc3ccccc3n1)C(=O)C(N)=O)C(=O)N2` (stereo in doubt) [Compound C130, N-((2S)-1-((1-(8-acetyl-2-oxo-1,8-diazaspiro[4.5]decan-3-yl)-4-amino-3,4-dioxobutan-2-yl)amino)-1-oxo-3-phenylpropan-2-yl)quinoxaline-2-carboxamide], the concentration for half-maximal inhibition (IC50) was more than 20 µM.

Regarding `CCOP(=O)(OCC)C(O)[C@H](CCC(=O)N1CCN(C(=O)OC(C)(C)C)C(c2ccccc2)C1)NC(=O)[C@H](CC1CCCCC1)NC(=O)OCc1cccc(Cl)c1` (stereo partly drawn) [Compound C1, tert-butyl 4-((4S)-4-((S)-2-((((3-chlorobenzyl)oxy)carbonyl)amino)-3-cyclohexylpropanamido)-5-(diethoxyphosphoryl)-5-hydroxypentanoyl)-2-phenylpiperazine-1-carboxylate], the IC50 is more than 200 µM.

For `CCOP(=O)(OCC)C(O)[C@H](CCC(=O)N(C)C)NC(=O)C(CC(C)(C)C)NC(=O)OCc1cccc(Cl)c1` (stereo partly drawn) [Compound C2, 3-Chlorobenzyl (1-(((2S)-1-(diethoxyphosphoryl)-5-(dimethylamino)-1-hydroxy-5-oxopentan-2-yl)amino)-4,4-dimethyl-1-oxopentan-2-yl)carbamate], the 50% inhibitory concentration (IC50) worked out at 71 µM.

Regarding `CCOP(=O)(OCC)C(O)[C@H](CCC(=O)N1CCNCc2ccccc21)NC(=O)[C@H](CC1CCCCC1)NC(=O)OCc1cccc(Cl)c1` (stereo partly drawn) [Compound C3], the IC50 was more than 200 µM.

As for `CC1C[C@H](NC(=O)[C@H](CC2CCCCC2)NC(=O)OCc2cccc(Cl)c2)C(O)N(CCc2ccccc2)C1=O` (stereo partly drawn) [Compound C4], the IC50 was more than 200 µM.

As for `CCOP(=O)(OCC)C(O)[C@H](CCC(=O)N(C)C1(Cc2ccccc2)CC1)NC(=O)[C@H](CC1CCCCC1)NC(=O)OCc1cccc(Cl)c1` (stereo partly drawn) [Compound C5, 3-Chlorobenzyl ((2S)-1-(((2S)-5-((1-benzylcyclopropyl)(methyl)amino)-1-(diethoxyphosphoryl)-1-hydroxy-5-oxopentan-2-yl)amino)-3-cyclohexyl-1-oxopropan-2-yl)carbamate], the half-inhibitory concentration (IC50) was more than 200 µM.

Consider `CCCCCOC(=O)N[C@@H](CC1CCCCC1)C(=O)N[C@@H](CCC(=O)N1CCOc2ccccc2C1)C(O)P(=O)(OCC)OCC` (stereo partly drawn) [Compound C6, Pentyl ((2S)-3-cyclohexyl-1-(((2S)-1-(diethoxyphosphoryl)-5-(2,3-dihydrobenzo[f][1,4]oxazepin-4(5H)-yl)-1-hydroxy-5-oxopentan-2-yl)amino)-1-oxopropan-2-yl)carbamate], for which the IC50 is more than 200 µM.

For the compound `CCCCCCOC(=O)N[C@@H](CC1CCCCC1)C(=O)N[C@@H](CCC(=O)N1CCOc2ccccc2C1)C(O)P(=O)(OCC)OCC` (stereo partly drawn) [Compound C7, Hexyl ((2S)-3-cyclohexyl-1-(((2S)-1-(diethoxyphosphoryl)-5-(2,3-dihydrobenzo[f][1,4]oxazepin-4(5H)-yl)-1-hydroxy-5-oxopentan-2-yl)amino)-1-oxopropan-2-yl)carbamate], the IC50 is more than 200 µM.

Regarding `CCOP(=O)(OCC)C(O)[C@H](CC1CCN(CCc2ccccc2)C1=O)NC(=O)[C@H](CC1CCCCC1)NC(=O)OCc1cccc(Cl)c1` (stereo partly drawn) [Compound C8, 3-Chlorobenzyl ((2S)-3-cyclohexyl-1-((1-(diethoxyphosphaneyl)-1-hydroxy-3-(2-oxo-1-phenethylpyrrolidin-3-yl)propan-2-yl)amino)-1-oxopropan-2-yl) carbamate], the IC50 is more than 200 µM.

As for `CCOP(=O)(OCC)C(O)[C@H](CCC(=O)N1CCOc2ccc(Cl)cc2C1)NC(=O)[C@H](CC1CCCCC1)NC(=O)OCc1cccc(Cl)c1` (stereo partly drawn) [Compound C9, 3-Chlorobenzyl ((2S)-1-(((2S)-5-(7-chloro-2,3-dihydrobenzo[f][1,4]oxazepin-4(5H)-yl)-1-(diethoxyphosphoryl)-1-hydroxy-5-oxopentan-2-yl)amino)-3-cyclohexyl-1-oxopropan-2-yl)carbamate], the IC50 is more than 200 µM.

As to `CN(CCc1ccccc1)C(=O)CC[C@@H](C=O)NC(=O)[C@H](CC1CCCCC1)NC(=O)OC1(c2cccc(Cl)c2)CC1` [Compound C10, 1-(3-Chlorophenyl) cyclopropyl ((S)-3-cyclohexyl-1-(((S)-5-(methyl (phenethyl)amino)-1,5-dioxopentan-2-yl)amino)-1-oxopropan-2-yl) carbamate], the IC50 was more than 200 µM.

In the case of `CCOP(=O)(OCC)C(O)[C@H](CC(C)C(=O)N1CCOc2ccccc2C1)NC(=O)[C@H](CC1CCCCC1)NC(=O)OCc1cccc(Cl)c1` (stereo partly drawn) [Compound C11, 3-chlorobenzyl ((2S)-3-cyclohexyl-1-(((2S)-1-(diethoxyphosphoryl)-5-(2,3-dihydrobenzo[f][1,4]oxazepin-4(5H)-yl)-1-hydroxy-4-methyl-5-oxopentan-2-yl)amino)-1-oxopropan-2-yl)carbamate], the IC50 was more than 200 µM.

With `CCOP(=O)(OCC)C(O)[C@H](CCC(=O)N1CCNC(c2ccccc2)C1)NC(=O)[C@H](CC1CCCCC1)NC(=O)OCc1cccc(Cl)c1` (stereo partly drawn) [Compound C12, 3-Chlorobenzyl ((2S)-3-cyclohexyl-1-(((2S)-1-(diethoxyphosphoryl)-1-hydroxy-5-oxo-5-(3-phenylpiperazin-1-yl)pentan-2-yl)amino)-1-oxopropan-2-yl)carbamate], the IC50 was more than 200 µM.

Consider `CCOP(=O)(OCC)C(O)[C@H](CCC(=O)N1CCOc2ccccc2C1)NC(=O)[C@H](CC1CCCCC1)NC(=O)OC1CCN(C(=O)OC(C)(C)C)CC1` (stereo partly drawn) [Compound C13, Tert-butyl 4-((((2S)-3-cyclohexyl-1-(((2S)-1-(diethoxyphosphoryl)-5-(2,3-dihydrobenzo[f][1,4]oxazepin-4(5H)-yl)-1-hydroxy-5-oxopentan-2-yl)amino)-1-oxopropan-2-yl)carbamoyl)oxy)piperidine-1-carboxylate], for which the IC50 was more than 200 µM.

Broadly, the IC50 is the concentration that inhibits the measured activity by half.
